Reference: ChEMBL document CHEMBL1201862, “PubChem BioAssay data set” (2004)
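Dose response: 5 concentrations. Exposure: 48 h. Format: 96-well plates. Endpoint: linear interpolation; highest concentration if not reached. GI50: concentration for 50% inhibition of growth.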 The source made the active and inactive calls. No stated cut-off is given here; in the data, active = GI50 up to about 1.1 µM and inactive = higher.

How the values were obtained:
Assay in all cases: NCI-60 cell line screen, 48 h
786-0 = tested on: 786-0
A498 = tested on: A498
A549 = tested on: A549
ACHN = tested on: ACHN
CCRF-CEM = tested on: CCRF-CEM
COLO 205 = tested on: COLO 205
DLD-1 = tested on: DLD-1
DMS-273 = tested on: DMS-273
EKVX = tested on: EKVX
HCC 2998 = tested on: HCC 2998
HCT-116 = tested on: HCT-116
HCT-15 = tested on: HCT-15
HL-60 = tested on: HL-60
HOP-18 = tested on: HOP-18
HOP-62 = tested on: HOP-62
HOP-92 = tested on: HOP-92
HT-29 = tested on: HT-29
IGROV-1 = tested on: IGROV-1
K562 = tested on: K562
KM12 = tested on: KM12
LOX IMVI = tested on: LOX IMVI
LXFL 529 = tested on: LXFL 529
M14 = tested on: M14
M19-MEL = tested on: M19-MEL
MOLT-4 = tested on: MOLT-4
Malme-3M = tested on: Malme-3M
NCI-H226 = tested on: NCI-H226
NCI-H23 = tested on: NCI-H23
NCI-H460 = tested on: NCI-H460
NCI-H522 = tested on: NCI-H522
OVCAR-4 = tested on: OVCAR-4
OVCAR-5 = tested on: OVCAR-5
OVCAR-8 = tested on: OVCAR-8
RPMI-8226 = tested on: RPMI-8226
SF-268 = tested on: SF-268
SF-295 = tested on: SF-295
SF-539 = tested on: SF-539
SK-MEL-28 = tested on: SK-MEL-28
SK-MEL-2 = tested on: SK-MEL-2
SK-MEL-5 = tested on: SK-MEL-5
SK-OV-3 = tested on: SK-OV-3
SN12C = tested on: SN12C
SNB-75 = tested on: SNB-75
SNB-78 = tested on: SNB-78
SR = tested on: SR
SW-620 = tested on: SW-620
TK-10 = tested on: TK-10
U-251 = tested on: U-251
UACC-257 = tested on: UACC-257
UACC-62 = tested on: UACC-62
UO-31 = tested on: UO-31
XF498 = tested on: XF498
CAKI-1 = tested on: CAKI-1
DMS-114 = tested on: DMS-114
KM-20L2 = tested on: KM-20L2
OVCAR-3 = tested on: OVCAR-3
RXF 393 = tested on: RXF 393
SNB-19 = tested on: SNB-19

Q: With `CCOC(=O)C(=C=Cc1cccs1)C(=O)c1ccccc1` as the molecule, how does the GI50 (786-0) read?
A: 16 µM (inactive)

Q: What about the GI50 (A498) of the same molecule?
A: 19.9 µM (inactive)

Q: What about the GI50 (A549) of the same molecule?
A: 18.9 µM (inactive)

Q: And the GI50 (ACHN)?
A: 18.8 µM (inactive)

Q: What about the GI50 (CCRF-CEM) of the same molecule?
A: 29.1 µM (inactive)

Q: What about the GI50 (COLO 205) of the same molecule?
A: 17.6 µM (inactive)

Q: And the GI50 (DLD-1)?
A: 14.3 µM (inactive)

Q: What about the GI50 (DMS-273) of the same molecule?
A: 17.4 µM (inactive)

Q: And the GI50 (EKVX)?
A: 16.7 µM (inactive)

Q: And the GI50 (HCC 2998)?
A: 17.4 µM (inactive)

Q: And the GI50 (HCT-116)?
A: 14.6 µM (inactive)

Q: What about the GI50 (HCT-15) of the same molecule?
A: 16.6 µM

Q: What about the GI50 (HL-60) of the same molecule?
A: 24.6 µM (inactive)

Q: And the GI50 (HOP-18)?
A: 17.5 µM (inactive)

Q: What about the GI50 (HOP-62) of the same molecule?
A: 18.7 µM (inactive)

Q: And the GI50 (HOP-92)?
A: 5.15 µM (inactive)

Q: What about the GI50 (HT-29) of the same molecule?
A: 19.4 µM (inactive)

Q: And the GI50 (IGROV-1)?
A: 17.3 µM (inactive)

Q: What about the GI50 (K562) of the same molecule?
A: 37.4 µM (inactive)

Q: What about the GI50 (KM12) of the same molecule?
A: 12.3 µM (inactive)

Q: And the GI50 (LOX IMVI)?
A: 12.4 µM (inactive)

Q: What about the GI50 (LXFL 529) of the same molecule?
A: 14.9 µM (inactive)

Q: And the GI50 (M14)?
A: 15 µM (inactive)

Q: What about the GI50 (M19-MEL) of the same molecule?
A: 17.2 µM (inactive)

Q: What about the GI50 (MOLT-4) of the same molecule?
A: 19.2 µM (inactive)

Q: And the GI50 (Malme-3M)?
A: 15.7 µM (inactive)

Q: And the GI50 (NCI-H226)?
A: 15 µM (inactive)

Q: And the GI50 (NCI-H23)?
A: 15.4 µM (inactive)

Q: What about the GI50 (NCI-H460) of the same molecule?
A: 20.4 µM (inactive)

Q: And the GI50 (NCI-H522)?
A: 15.1 µM (inactive)

Q: What about the GI50 (OVCAR-4) of the same molecule?
A: 17 µM (inactive)

Q: And the GI50 (OVCAR-5)?
A: 15.2 µM (inactive)

Q: What about the GI50 (OVCAR-8) of the same molecule?
A: 15.8 µM (inactive)

Q: What about the GI50 (RPMI-8226) of the same molecule?
A: 18.3 µM (inactive)

Q: What about the GI50 (SF-268) of the same molecule?
A: 15.9 µM (inactive)

Q: What about the GI50 (SF-295) of the same molecule?
A: 17.8 µM (inactive)

Q: And the GI50 (SF-539)?
A: 16.5 µM (inactive)

Q: And the GI50 (SK-MEL-28)?
A: 14.8 µM (inactive)

Q: What about the GI50 (SK-MEL-2) of the same molecule?
A: 19 µM (inactive)

Q: And the GI50 (SK-MEL-5)?
A: 3.38 µM (inactive)

Q: What about the GI50 (SK-OV-3) of the same molecule?
A: 20.3 µM (inactive)

Q: And the GI50 (SN12C)?
A: 15.8 µM (inactive)

Q: And the GI50 (SNB-75)?
A: 15.8 µM (inactive)

Q: What about the GI50 (SNB-78) of the same molecule?
A: 18.3 µM (inactive)

Q: What about the GI50 (SR) of the same molecule?
A: 19.9 µM (inactive)

Q: And the GI50 (SW-620)?
A: 18 µM (inactive)

Q: And the GI50 (TK-10)?
A: 15 µM (inactive)

Q: What about the GI50 (U-251) of the same molecule?
A: 16.9 µM (inactive)

Q: And the GI50 (UACC-257)?
A: 12.9 µM (inactive)

Q: And the GI50 (UACC-62)?
A: 15.5 µM (inactive)

Q: And the GI50 (UO-31)?
A: 14.3 µM (inactive)

Q: What about the GI50 (XF498) of the same molecule?
A: 16.2 µM (inactive)

Q: Which results are given for `[N-]=[N+]=NC(c1cn(C2CC(O)C(CO)O2)c(=O)[nH]c1=O)C(Br)Br` (stereo not given)?
A: GI50 (786-0): > 100 µM (inactive); GI50 (A549): > 100 µM (inactive); GI50 (ACHN): > 100 µM (inactive); GI50 (CAKI-1): > 100 µM (inactive); GI50 (CCRF-CEM): > 100 µM (inactive); GI50 (COLO 205): > 100 µM (inactive); GI50 (DLD-1): > 100 µM (inactive); GI50 (DMS-114): > 100 µM (inactive); GI50 (DMS-273): > 100 µM (inactive); GI50 (EKVX): > 100 µM (inactive); GI50 (HCC 2998): > 100 µM (inactive); GI50 (HCT-116): > 100 µM (inactive); GI50 (HCT-15): > 100 µM; GI50 (HL-60): > 100 µM (inactive); GI50 (HOP-18): > 100 µM (inactive); GI50 (HOP-62): > 100 µM (inactive); GI50 (HOP-92): > 100 µM (inactive); GI50 (HT-29): > 100 µM (inactive); GI50 (IGROV-1): > 100 µM (inactive); GI50 (K562): > 100 µM (inactive); GI50 (KM-20L2): > 100 µM (inactive); GI50 (KM12): > 100 µM (inactive); GI50 (LOX IMVI): > 100 µM (inactive); GI50 (LXFL 529): > 100 µM (inactive); GI50 (M14): > 100 µM (inactive); GI50 (M19-MEL): > 100 µM (inactive); GI50 (MOLT-4): > 100 µM (inactive); GI50 (Malme-3M): > 100 µM (inactive); GI50 (NCI-H226): > 100 µM (inactive); GI50 (NCI-H23): > 100 µM (inactive); GI50 (NCI-H460): > 100 µM (inactive); GI50 (NCI-H522): > 100 µM (inactive); GI50 (OVCAR-3): > 100 µM (inactive); GI50 (OVCAR-5): > 100 µM (inactive); GI50 (OVCAR-8): > 100 µM (inactive); GI50 (RPMI-8226): > 100 µM (inactive); GI50 (RXF 393): > 100 µM (inactive); GI50 (SF-295): > 100 µM (inactive); GI50 (SF-539): > 100 µM (inactive); GI50 (SK-MEL-28): > 100 µM (inactive); GI50 (SK-MEL-2): > 100 µM (inactive); GI50 (SK-MEL-5): > 100 µM (inactive); GI50 (SK-OV-3): > 100 µM (inactive); GI50 (SN12C): > 100 µM (inactive); GI50 (SNB-19): > 100 µM (inactive); GI50 (SNB-75): > 100 µM (inactive); GI50 (SNB-78): > 100 µM (inactive); GI50 (SR): > 100 µM (inactive); GI50 (SW-620): > 100 µM (inactive); GI50 (TK-10): > 100 µM (inactive); GI50 (U-251): > 100 µM (inactive); GI50 (UACC-62): > 100 µM (inactive); GI50 (UO-31): > 100 µM (inactive)
